The test system of assay [1] is Arc gene expression. Description: Increase of Arc gene expression (Arc mRNA, real-time PCR) in rat striatum and cortex. The format is in vivo. Particulars: estimated ED50 on increase of Arc gene expression. Here is the method:
To investigate potential effects of compounds of the present invention on cortical and striatal NMDA receptor related synaptic signalling, Arc mRNA induction was assessed upon acute administration of a compound of the present invention. […]
Total RNA is prepared by the guanidin isothiocyanate method reported by Chomczynski & Sacchi [Chomczynski P & Sacchi N; Anal. Biochem. 1987 162 156-159]. […] The sample concentration was determined spectrophotometrically by a NanoDrop ND-1000. A quality indicator number and an integrity number of r-RNA were measured with an Experion (Bio-Rad) on random samples. […]
For real-time PCR measurements, 0.7 μl of the cDNA reaction was amplified in a 25 μl reaction mixture containing 1×PCR buffer, 0.2 mM dNTP, 3.7 mM MgCl2, 0.15 mM SYBR green, 0.4 μM of each primer, and 1U JumpStart Taq DNA polymerase. Real-time PCR was measured on CFX96 (Biorad) using the following settings for all genes, 60 s pre-incubation at 95° C., followed by 40 cycles of denaturation at 95° C. for 10 s, annealing at 56° C. for 10 s, and elongation at 72° C. for 10 s.
Initial DNA amounts were quantified by a standard curve constructed for every gene using 6 serial 4-fold dilutions of purified PCR products. […]
Arc gene amounts were normalised using the geometric mean of the amounts of the two house-keeping genes assessed (HPRT and cyclophilin A). […]

For assay [2], the system named is DOPAC (3,4-dihydroxyphenylacetic acid) in the rat striatum. Description: Increase of DOPAC (3,4-dihydroxyphenylacetic acid) in the rat striatum after systemic administration. In kind it is in vivo. The following applies: sc, estimated ED50 on increase of DOPAC in rat striatum, dose range 0-100 μmol/kg s.c., curve fitting. An excerpt:
The increased turnover of dopamine in the terminal areas of the ascending dopaminergic projections of the mammalian brain can be illustrated by measuring of changes in biochemical indices in the brain with the characteristic features of dopamine antagonists, e.g. producing increases in concentrations of dopamine metabolites such as 3,4-dihydroxyphenyl-acetic acid (DOPAC) in the striatum.
After the behavioural activity sessions, the rats are decapitated and their brains rapidly taken out and put on an ice-cold petri-dish. The limbic forebrain, the striatum, the frontal cortex and the remaining hemispheral parts of each rat are dissected and frozen. Each brain part is subsequently analyzed with respect to its content of monoamines and their metabolites.
The monoamine transmitter substances (NA (noradrenaline), DA (dopamine), 5-HT (serotonin)) as well as their amine (NM (normethanephrine), 3-MT (3-methoxytyramine)) and acid (DOPAC (3,4-dihydroxyphenylacetic acid), 5-HIAA (5-hydroxyindoleacetic acid), HVA (homovanillic acid)) metabolites are quantified in brain tissue homogenates by HPLC separations and electrochemical detection
The analytical method is based on two chromatographic separations dedicated for amines or acids. Two chromatographic systems share a common auto injector with a 10-port valve and two sample loops for simultaneous injection on the two systems. Both systems are equipped with a reverse phase column (Luna C18(2), dp 3 μm, 50×2 mm i.d., Phenomenex) and electrochemical detection is accomplished at two potentials on glassy carbon electrodes (MF-1000, Bioanalytical Systems, Inc.). The column effluent is passed via a T-connection to the detection cell or to a waste outlet. This is accomplished by two solenoid valves, which block either the waste or detector outlet. By preventing the chromatographic front from reaching the detector, better detection conditions are achieved. The aqueous mobile phase (0.4 ml/min) for the acid system contains citric acid 14 mM, sodium citrate 10 mM, MeOH 15% (v/v) and EDTA 0.1 mM. Detection potentials relative to Ag/AgCl reference are 0.45 and 0.60V. […] Detection potentials relative to Ag/AgCl reference are 0.45 and 0.65V.
ED50 value for the increase of DOPAC in striatum is calculated by curve fitting. The evaluation is based on 40 animals over the dose range 0, 3.7, 11, 33 and 100 μmol/kg s.c. in two combined experiments. The DOPAC levels are normalised to control and fitted by least square minimization to the function “End-(End-Control)/(1+(dose/ED50)^slope)”. The four parameters (Control, End, ED50 and Slope) are fitted with the restrictions: ED50>0, 0.5<Slope<3, 350<End<400% of control. To estimate confidence levels for the parameters, the fit is repeated 100 times with a random evenly distributed squared weight (0 to 1) for every measurement value. Presented ED50-ranges cover 95% of these values.

Where only a bound is given, the exact number is not on record here.

What is called ED50 is the midpoint of the dose-response relation. `CCCNCCOc1cc(F)cc(S(C)(=O)=O)c1` [Example 1, N-[2-(3-fluoro-5-methylsulfonyl-phenoxy)ethyl]propan-1-amine]: the ED50 is under 11 µmol/kg in assay [1] (rat (prefrontal) cortex, evaluated to be below the lowest dose); 13 µmol/kg in assay [1] (sc, rat striatum, systemic administration, 0-100 μmol/kg s.c.); 8.5 µmol/kg in assay [2].

The values are drawn from patent US9120728B2, “Modulators of cortical dopaminergic- and NMDA-receptor-mediated glutamatergic neurotransmission” (INTEGRATIVE RESEARCH LABORATORIES SWEDEN AB, priority 2011, dated 2015).
